Laboratory results taken from the supplement of paper PMC4862054.

Columns and labels:
Conditions in all cases: 72 h
MDA-MB-231 [1] = test system: MDA-MB-231
Protocol: (§1)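 Drug sensitivity and resistance testing (DSRT) of breast cancer cell lines in 384-well plates, 5 concentrations in 10-fold dilutions over a compound-specific 10,000-fold range. After 72 h, cytotoxicity was read by CellTox Green fluorescence and viability by CellTiter-Glo luminescence (multiplexed), normalised to DMSO and benzethonium chloride controls. EC50 is the inflection point of the fitted dose-response curve (bottom asymptote free, so it can be relative for partial curves) and is censored at the highest tested concentration. Rows with DSS 0 (no meaningful response) were excluded.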

BT-549 [2] = test system: BT-549
Protocol: as §1

MFM-223 [3] = test system: MFM-223
Protocol: as §1

MDA-MB-468 [4] = test system: MDA-MB-468
Protocol: as §1

CAL-85-1 [5] = test system: CAL-85-1
Protocol: as §1

HDQ-P1 [6] = test system: HDQ-P1
Protocol: as §1

CAL-120 [7] = test system: CAL-120
Protocol: as §1

Hs578T [8] = test system: Hs578T
Protocol: as §1

BT-474 [9] = test system: BT-474
Protocol: as §1

CAL-51 [10] = test system: CAL-51
Protocol: as §1

MCF-10A [11] = test system: MCF-10A
Protocol: as §1

MDA-MB-453 [12] = test system: MDA-MB-453
How it was run: (§2)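 EC50 is the value from a fitted percent-inhibition dose-response curve, censored at the highest concentration, and rows with zero drug sensitivity score were not kept. The underlying assay seeded breast cancer cell lines in 20 µl onto 384-well plates pre-loaded with compound in 5 µl medium for 72 h. Viability was then read by CellTiter-Blue fluorescence at 560/590 nm after 2 h at 37 °C, with each plate normalised to vehicle and a positive kill control.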

CAL-85-1 [13] = test system: CAL-85-1; remark: listed apart in the source
How it was run: as §2

HDQ-P1 [14] = test system: HDQ-P1; remark: listed apart in the source
How it was run: as §2

DU-4475 [15] = test system: DU-4475
How it was run: as §2

CAL-148 [16] = test system: CAL-148
How it was run: as §2

CAL-51 [17] = test system: CAL-51; remark: listed apart in the source
How it was run: as §2

MDA-MB-231 [18] = test system: MDA-MB-231; remark: listed apart in the source
How it was run: (§3)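 Breast cancer cell lines in 20 µl suspension were added to 384-well plates already holding compound at 5 concentrations, spaced in 10-fold steps across a compound-specific 10,000-fold range, and incubated for 72 h. CellTox Green fluorescence (485/520 nm) was read first to measure cell death, followed by CellTiter-Glo luminescence for viability after 10 min at room temperature. Each plate was normalised to 0.1 % DMSO and a positive kill control. EC50 values came from dose-response curve fits and were censored at the top concentration.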

BT-549 [19] = test system: BT-549; remark: listed apart in the source
How it was run: as §3

MFM-223 [20] = test system: MFM-223; remark: listed apart in the source
How it was run: as §3

MDA-MB-468 [21] = test system: MDA-MB-468; remark: listed apart in the source
How it was run: as §3

MDA-MB-453 [22] = test system: MDA-MB-453; remark: listed apart in the source
How it was run: as §3

MDA-MB-436 [23] = test system: MDA-MB-436
How it was run: as §3

CAL-85-1 [24] = test system: CAL-85-1; remark: listed apart in the source
How it was run: as §3

HDQ-P1 [25] = test system: HDQ-P1; remark: listed apart in the source
How it was run: as §3

SK-BR-3 = test system: SK-BR-3
How it was run: as §3

CAL-120 [26] = test system: CAL-120; remark: listed apart in the source
How it was run: as §3

HCC1143 [27] = test system: HCC1143
How it was run: as §3

Hs578T [28] = test system: Hs578T; remark: listed apart in the source
How it was run: as §3

BT-474 [29] = test system: BT-474; remark: listed apart in the source
How it was run: as §3

DU-4475 [30] = test system: DU-4475; remark: listed apart in the source
How it was run: as §3

CAL-148 [31] = test system: CAL-148; remark: listed apart in the source
How it was run: as §3

CAL-51 [32] = test system: CAL-51; remark: listed apart in the source
How it was run: as §3

MCF-10A [33] = test system: MCF-10A; remark: listed apart in the source
How it was run: as §3

HCC1937 = test system: HCC1937
How it was run: as §3

HCC1599 [34] = test system: HCC1599
How it was run: as §3

MDA-MB-231 [35] = test system: MDA-MB-231; remark: listed apart in the source
How it was run: as §2

BT-549 [36] = test system: BT-549; remark: listed apart in the source
How it was run: as §2

MFM-223 [37] = test system: MFM-223; remark: listed apart in the source
How it was run: as §2

MDA-MB-436 [38] = test system: MDA-MB-436; remark: listed apart in the source
How it was run: as §2

CAL-120 [39] = test system: CAL-120; remark: listed apart in the source
How it was run: as §2

HCC1143 [40] = test system: HCC1143; remark: listed apart in the source
How it was run: as §2

Hs578T [41] = test system: Hs578T; remark: listed apart in the source
How it was run: as §2

BT-474 [42] = test system: BT-474; remark: listed apart in the source
How it was run: as §2

HCC1599 [43] = test system: HCC1599; remark: listed apart in the source
How it was run: as §2

MDA-MB-453 [44] = test system: MDA-MB-453; remark: listed apart in the source
Protocol: as §1

C=CC(=O)Nc1cc2c(Nc3ccc(F)c(Cl)c3)ncnc2cc1OCCCN1CCOCC1 [Canertinib]
EC50, CellTox Green (MDA-MB-231 [1]): 4.92 µM
EC50, CellTox Green (BT-549 [2]): 9.07 µM
EC50, CellTox Green (MFM-223 [3]): 6.74 µM
EC50, CellTox Green (MDA-MB-468 [4]): 3.21 µM
EC50, CellTox Green (CAL-85-1 [5]): 1.62 µM
EC50, CellTox Green (HDQ-P1 [6]): 3.47 µM
EC50, CellTox Green (CAL-120 [7]): 6.66 µM
EC50, CellTox Green (Hs578T [8]): 2.85 µM
EC50, CellTox Green (BT-474 [9]): 9.8 µM
EC50, CellTox Green (CAL-51 [10]): 3.01 µM
EC50, CellTox Green (MCF-10A [11]): 1.69 µM
EC50, CellTiter-Blue viability (MDA-MB-453 [12]): 0.243 µM
EC50, CellTiter-Blue viability (CAL-85-1 [13]): 0.361 µM
EC50, CellTiter-Blue viability (HDQ-P1 [14]): 0.448 µM
EC50, CellTiter-Blue viability (DU-4475 [15]): 5.98 µM
EC50, CellTiter-Blue viability (CAL-148 [16]): 3.37 µM
EC50, CellTiter-Blue viability (CAL-51 [17]): 4.69 µM
EC50, CellTiter-Glo (MDA-MB-231 [18]): 1.63 µM
EC50, CellTiter-Glo (BT-549 [19]): 2.11 µM
EC50, CellTiter-Glo (MFM-223 [20]): 5.5 µM
EC50, CellTiter-Glo (MDA-MB-468 [21]): 1.12 µM
EC50, CellTiter-Glo (MDA-MB-453 [22]): 3.02 µM
EC50, CellTiter-Glo (MDA-MB-436 [23]): 4.37 µM
EC50, CellTiter-Glo (CAL-85-1 [24]): 0.595 µM
EC50, CellTiter-Glo (HDQ-P1 [25]): 0.93 µM
EC50, CellTiter-Glo (SK-BR-3): 0.0488 µM
EC50, CellTiter-Glo (CAL-120 [26]): 5.39 µM
EC50, CellTiter-Glo (HCC1143 [27]): 4.71 µM
EC50, CellTiter-Glo (Hs578T [28]): 5.45 µM
EC50, CellTiter-Glo (BT-474 [29]): 2.6 µM
EC50, CellTiter-Glo (DU-4475 [30]): 8.21 µM
EC50, CellTiter-Glo (CAL-148 [31]): 1.39 µM
EC50, CellTiter-Glo (CAL-51 [32]): 0.573 µM
EC50, CellTiter-Glo (MCF-10A [33]): 0.106 µM
EC50, CellTiter-Glo (HCC1937): 3.34 µM
EC50, CellTiter-Glo (HCC1599 [34]): 0.586 µM
EC50, CellTiter-Blue viability (MDA-MB-231 [35]): 1.82 µM
EC50, CellTiter-Blue viability (BT-549 [36]): 2.48 µM
EC50, CellTiter-Blue viability (MFM-223 [37]): 3.02 µM
EC50, CellTiter-Blue viability (MDA-MB-436 [38]): 0.811 µM
EC50, CellTiter-Blue viability (CAL-120 [39]): 1.72 µM
EC50, CellTiter-Blue viability (HCC1143 [40]): 4.17 µM
EC50, CellTiter-Blue viability (Hs578T [41]): 3.7 µM
EC50, CellTiter-Blue viability (BT-474 [42]): 0.11 µM
EC50, CellTiter-Blue viability (HCC1599 [43]): 9.08 µM

Nc1ncn([C@H]2C[C@H](O)[C@@H](CO)O2)c(=O)n1 [Decitabine]
EC50, CellTox Green (MDA-MB-468 [4]): > 10 µM
EC50, CellTox Green (MDA-MB-453 [44]): > 10 µM
EC50, CellTox Green (CAL-51 [10]): 0.0289 µM
EC50, CellTiter-Blue viability (MDA-MB-453 [12]): 6.49 µM
EC50, CellTiter-Blue viability (DU-4475 [15]): 6.76 µM
EC50, CellTiter-Blue viability (CAL-148 [16]): 6.6 µM
EC50, CellTiter-Blue viability (CAL-51 [17]): 2.38 µM
EC50, CellTiter-Glo (BT-549 [19]): 0.604 µM
EC50, CellTiter-Glo (MDA-MB-468 [21]): 0.0652 µM
EC50, CellTiter-Glo (HDQ-P1 [25]): > 10 µM
EC50, CellTiter-Glo (Hs578T [28]): > 10 µM
EC50, CellTiter-Glo (BT-474 [29]): > 10 µM
EC50, CellTiter-Glo (CAL-51 [32]): 1.16 µM
EC50, CellTiter-Glo (HCC1937): 3.5 µM
EC50, CellTiter-Blue viability (MDA-MB-231 [35]): 0.096 µM
EC50, CellTiter-Blue viability (BT-549 [36]): 1.8 µM
EC50, CellTiter-Blue viability (MDA-MB-436 [38]): 0.0901 µM
EC50, CellTiter-Blue viability (BT-474 [42]): 1.97 µM
EC50, CellTiter-Blue viability (HCC1599 [43]): > 10 µM
